Assay results as given in patent US7976843B2, “Method for screening peptides for use in immunotherapy” (Institut National de la Santa et de la Recherche Medicale …, priority 2000, dated 2011).

System: RMA-HHD cells infected with vac-HIVgag, vac-neu, vac-gp100 or flu PR8
Design: species or system HHD mice
Details: mouse, in vivo

| Sequence | killing of RMA-HHD cells infected with virus expressing the antigen vs vac-WT |
| --- | --- |
| ILLVVVLGV [HER-2/neu 661] | exception |
| PLTSIISAV [HER-2/neu 650] | kill target cells infected with vac-neu, but not targets infected with vac-WT |
